Assay results taken from patent US8309586B2, “Glucokinase activators and pharmaceutical compositions containing the same as an active ingredient” (LG Life Sciences Ltd., priority 2007, dated 2012).

Test system: Glucokinase known as hexokinase IV (human GK isoform 1, pancreas form and human GK isoform 2, liver form)
Experiment: Glucokinase enzymatic activity assay (G6PDH-coupled, NADH absorbance at 340 nm)
Format: biochemical
Conditions: 5 mM glucose, 1 mM ATP, 37 nM GK, 10 min at room temperature
Method: Glucokinase known as hexokinase IV (human GK isoform 1, pancreas form and human GK isoform 2, liver form) was cloned into an expression vector pET15 fx (Novagen Co.), transformed to E. coli BL21 (DE3) (Invitrogen Co.) strain, expressed, and purified using a nickel column. Then, the glucokinase obtained from dialysis was used in the following assay.
Glucokinase assay was performed by measuring absorbance according to the conventional manner. Briefly speaking, glucokinase converts the substrate glucose to glucose-6-phosphate under certain conditions, and glucose-6-phosphate dehydrogenase irreversibly converts glucose-6-phosphate to gluconate-6-phosphate. During this procedure, NADH is formed, and its absorbance is measured to calculate the enzymatic activity.
In the measurement of the enzymatic activity, each compound was diluted by two-fold from the maximum to the minimum concentrations, and 2 μl of each solution was added to 96 well UV plate (BD bioscience). 60 μl of the first mixture (final concentrations 25 mM Hepes, 25 mM KCl, 2 mM MgCl2, 1 mM DTT) was added, and thoroughly mixed. 38 μl of the enzyme mixture (final concentrations 1 mM ATP, 1 mM NAD, 5 mM glucose, 0.85U G6PDH, 37 nM GK) was added (final volume 100 μl), and the mixture was reacted for 10 min at room temperature. The absorbance of NADH was measured at 340 nm using a UV spectrometer (Molecular Device).
The enzyme activating abilities of the compounds according to the present invention are represented as AC1.5 (the compound concentration at which the enzymatic activity is increased by 1.5 times, nM), which is in the range of 0.001 uM to 30 uM or less, preferably 0.001 uM to 10 uM, more preferably 0.001 uM to 1 uM.

| Compound | AC1.5 (the compound concentration at which the enzymatic activity is increased by 1.5 times) [nM] |
| --- | --- |
| CC(=O)N1CCN(CC[C@@H]2CSC(c3cc4cc(F)cc(NC5CCCC5)c4[nH]3)=N2)CC1 [Example 125, 1-(4-{2-[(R)-2-(7-cyclopentylamino-5-fluoro-1H-indol-2-yl)-4,5-dihydro-thiazol-4-yl]-ethyl}-piperazin-1-yl)-ethanone] | 23 |
| CC(=O)N1CCN(C(=O)C[C@@H]2CSC(c3cc4cc(F)cc(NC5CCCC5)c4[nH]3)=N2)CC1 [Example 86, 1-(4-acetyl-piperazin-1-yl)-2-[(R)-2-(7-cyclopentylamino-5-fluoro-1H-indol-2-yl)-4,5-dihydro-thiazol-4-yl]-ethanone] | 23 |
| COC(=O)C[C@@H]1CSC(c2cc3cc(Cl)cc(NC4CCCC4)c3[nH]2)=N1 [Example 26, [(R)-2-(5-chloro-7-cyclopentylamino-1H-indol-2-yl)-4,5-dihydro-thiazol-4-yl]acetic acid methyl ester] | 7 |
| OC[C@@H]1CSC(c2cc3cc(Oc4cccnc4)cc(NC4CCCC4)c3[nH]2)=N1 [Example 13, {(R)-2-[7-cyclopentylamino-5-(pyridin-3-yloxy)-1H-indol-2-yl]-4,5-dihydro-thiazol-4-yl}-methanol] | 12 |
| COC(=O)C[C@@H]1CSC(c2cc3cc(Cl)cc(NC4CCOCC4)c3[nH]2)=N1 [Example 30, {(R)-2-[5-chloro-7-(tetrahydro-pyran-4-ylamino)-1H-indol-2-yl]-4,5-dihydro-thiazol-4-yl}acetic acid methyl ester] | 28 |
| COc1cc(NC2CCCC2)c2[nH]c(C3=N[C@H](CC(=O)O)CS3)cc2c1 [Example 48, [(R)-2-(7-cyclopentylamino-5-methoxy-1H-indol-2-yl)-4,5-dihydro-thiazol-4-yl]-acetic acid] | 9 |
| O=C(O)[C@@H]1CCCN1CC[C@@H]1CSC(c2cc3cc(Cl)cc(NC4CCCC4)c3[nH]2)=N1 [Example 107, (S)-1-{2-[(R)-2-(5-chloro-7-cyclopentylamino-1H-indol-2-yl)-4,5-dihydro-thiazol-4-yl]-ethyl}-pyrrolidine-2-carboxylic acid] | 63 |
| Cc1cc(NC2CCC(=O)CC2)c2[nH]c(C3=N[C@H](CC(=O)O)CS3)cc2c1 [Example 63, {(R)-2-[5-methyl-7-(4-oxo-cyclohexylamino)-1H-indol-2-yl]-4,5-dihydro-thiazol-4-yl}-acetic acid] | 119 |
| CN(C)CC[C@@H]1CSC(c2cc3cc(F)cc(NC4CCCC4)c3[nH]2)=N1 [Example 127, cyclopentyl-{2-[(R)-4-(2-dimethylamino-ethyl)-4,5-dihydro-thiazol-2-yl]-5-fluoro-1H-indol-7-yl}-amine] | 21 |
| OCCC[C@@H]1CSC(c2cc3cc(Cl)cc(NC4CCCC4)c3[nH]2)=N1 [Example 150, 3-[(R)-2-(5-chloro-7-cyclopentylamino-1H-indol-2-yl)-4,5-dihydro-thiazol-4-yl]-propan-1-ol] | 10 |
| OC1CCN(CC[C@@H]2CSC(c3cc4cc(Cl)cc(NC5CCCC5)c4[nH]3)=N2)CC1 [Example 101, 1-{2-[(R)-2-(5-chloro-7-cyclopentylamino-1H-indol-2-yl)-4,5-dihydro-thiazol-4-yl]-ethyl}-piperidin-4-ol] | 10 |
| CS(=O)(=O)Cc1cc(NC2CCCC2)c2[nH]c(C3=N[C@H](CCN4CCOCC4)CS3)cc2c1 [Example 71, cyclopentyl-{5-methanesulfonylmethyl-2-[(R)-4-(2-morpholin-4-yl-ethyl)-4,5-dihydro-thiazol-2-yl]-1H-indol-7-yl}-amine] | 31 |
| COC(=O)C[C@@H]1CSC(c2cc3cc(C)cc(NC4CCCC4)c3[nH]2)=N1 [Example 60, [(R)-2-(7-cyclopentylamino-5-methyl-1H-indol-2-yl)-4,5-dihydro-thiazol-4-yl]acetic acid methyl ester] | 29 |
| CCOC(=O)C[C@@H]1CSC(c2cc3cc(OC)cc(NC4CCCC4)c3[nH]2)=N1 [Example 49, [(R)-2-(7-cyclopentylamino-5-methoxy-1H-indol-2-yl)-4,5-dihydro-thiazol-4-yl]-acetic acid ethyl ester] | 35 |

Results, then the compound that gave them:

| AC1.5 (the compound concentration at which the enzymatic activity is increased by 1.5 times) [nM] | Compound |
| --- | --- |
| 96 | OCC[C@@H]1CSC(c2cc3cccc(NC4CCOCC4)c3[nH]2)=N1 [Example 46, 2-{(R)-2-[7-(tetrahydro-pyran-4-ylamino)-1H-indol-2-yl]-4,5-dihydro-thiazol-4-yl}-ethanol] |
| 22 | Clc1cc(NC2CCCC2)c2[nH]c(C3=N[C@H](CCCN4CCOCC4)CS3)cc2c1 [Example 156, {5-chloro-2-[(R)-4-(3-morpholin-4-yl-propyl)-4,5-dihydro-thiazol-2-yl]-1H-indol-7-yl}-cyclopentyl-amine] |
| 52 | COc1cc(NC2CCOCC2)c2[nH]c(C3=N[C@H](CCN4CCN(C(=O)CO)CC4)CS3)cc2c1 [Example 147, 2-hydroxy-1-[4-(2-{(R)-2-[5-methoxy-7-(tetrahydro-pyran-4-ylamino)-1H-indol-2-yl]-4,5-dihydro-thiazol-4-yl}-ethyl)-piperazin-1-yl]ethanone] |
| 32 | CS(=O)(=O)Cc1cc(NC2CCCC2)c2[nH]c(C3=N[C@H](CO)CS3)cc2c1 [Example 24, [(R)-2-(7-cyclopentylamino-5-methanesulfonylmethyl-1H-indol-2-yl)-4,5-dihydro-thiazol-4-yl]-methanol] |
| 400 | c1cc(NC2CCCC2)c2[nH]c(C3=N[C@H](CN4CCCC4)CS3)cc2c1 [Example 15, cyclopentyl-[2-((R)-4-pyrrolidin-1-ylmethyl-4,5-dihydro-thiazol-2-yl)-1H-indol-7-yl]-amine] |
| 67 | O=S1(=O)CCN(CC[C@@H]2CSC(c3cc4cc(F)cc(NC5CCCC5)c4[nH]3)=N2)CC1 [Example 129, cyclopentyl-(2-{(R)-4-[2-(1,1-dioxo-thiomorpholin-4-yl)-ethyl]-4,5-dihydro-thiazol-2-yl}-5-fluoro-1H-indol-7-yl)-amine] |
| 85 | CN(C)CC[C@@H]1CSC(c2cc3cccc(NC4CCCC4)c3[nH]2)=N1 [Example 142, cyclopentyl-{2-[(R)-4-(2-dimethylamino-ethyl)-4,5-dihydro-thiazol-2-yl]-1H-indol-7-yl}-amine] |
| 18 | O=C(C[C@@H]1CSC(c2cc3cc(F)cc(NC4CCCC4)c3[nH]2)=N1)NCCN1CCOCC1 [Example 85, 2-[(R)-2-(7-cyclopentylamino-5-fluoro-1H-indol-2-yl)-4,5-dihydro-thiazol-4-yl]-N-(2-morpholin-4-yl-ethyl)-acetamide] |
| 52 | O=C(CO)N1CCN(CC[C@@H]2CSC(c3cc4cc(F)cc(NC5CCOCC5)c4[nH]3)=N2)CC1 [Example 140, 1-[4-(2-{(R)-2-[5-fluoro-7-(tetrahydro-pyran-4-ylamino)-1H-indol-2-yl]-4,5-dihydro-thiazol-4-yl}-ethyl)-piperazin-1-yl]-2-hydroxy-ethanone] |
| 25 | COc1cc(NC2CCCC2)c2[nH]c(C3=N[C@H](CO)CS3)cc2c1 [Example 12, [(R)-2-(7-cyclopentylamino-5-methoxy-1H-indol-2-yl)-4,5-dihydro-thiazol-4-yl]-methanol] |
| 19 | CN(C)C1CCN(C(=O)C[C@@H]2CSC(c3cc4cc(Cl)cc(NC5CCCC5)c4[nH]3)=N2)C1 (stereo partly drawn) [Example 79, 2-[(R)-2-(5-chloro-7-cyclopentylamino-1H-indol-2-yl)-4,5-dihydro-thiazol-4-yl]-1-(3-dimethylamino-pyrrolidin-1-yl)-ethanone] |
| 12 | CCOC(=O)COC[C@@H]1CSC(c2cc3cc(F)cc(NC4CCCC4)c3[nH]2)=N1 [Example 170, [(R)-2-(7-cyclopentylamino-5-fluoro-1H-indol-2-yl)-4,5-dihydro-thiazol-4-ylmethoxy]-acetic acid ethyl ester] |
